Values after ≈ are worked out from the molar mass of the structure shown. Where two headings read alike, the source gives them in different places.
How the values were obtained:
S. aureus ATCC 25923 = conditions: S. aureus ATCC 25923, NCCLS (2000); cited from earlier work
E. coli ATCC 25922 = conditions: E. coli ATCC 25922, NCCLS (2000); cited from earlier work
[1] = Long-term stability study, residual activity of stored penicillin; assay type: physicochemical; conditions: stored at 25° C. and 37° C.
Protocol: To determine if incorporation into silk films would have a similar stabilizing effect to that observed for enzymes, a long-term stability study was carried out comparing the residual activity of penicillin stored in 8% (w/v) silk films or in solution at 4° C. (refrigeration), 25° C. (room temperature) and 37° C. (body temperature).
Stability was also characterized for dry penicillin powder stored at 4° C., 25° C., and 37° C. Comparison of the stability of penicillin stored in silk films, in solution and in dry powder format over 60 days is shown in FIG. 14.

[2] = cited from earlier work

| Compound | MIC (S. aureus ATCC 25923) [µg/mL] | MIC (E. coli ATCC 25922) [µg/mL] | stability of penicillin in solution [1] | time of breakdown in solution ([2]; 37° C.) [h] | time of breakdown in solution ([2]; room temperature (25° C.)) |
| --- | --- | --- | --- | --- | --- |
| Cc1nnc(SCC2=C(C(=O)O)N3C(=O)[C@@H](NC(=O)Cn4cnnn4)[C@H]3SC2)s1 [cefazolin] | 0.25 (≈ 0.55 µM) | 1.0 (≈ 2.2 µM) |  |  |  |
| gentamicin | 0.25 | 0.5 |  |  |  |
| penicillin |  |  | rapidly declines | ≤ 24 | within weeks |

— patent US20190175785A1, “SILK FIBROIN SYSTEMS FOR ANTIBIOTIC DELIVERY” (Trustees of Tufts College, priority 2009, published 2019)
